# In BindingDB's records for doi:10.1021/jm990383f (Upjohn, 2000):
# Assays:
# [1] = molecular target: T1, Gag-Pol polyprotein [588-1027]/[588-1147] (Human immunodeficiency virus 1, UniProt P04585); assay: HIV-1 RT Assay; details: pH 8.3; 28 °C
# T1 construct: 588-1027; 588-1147
# Excerpt: (§1) The IC50 of reverse transcriptase is the concentration that inhibits 50% of recombinant HIV-1 RT RNA-directed DNA polymerase activity in vitro.
# [2] = molecular target: T2, Gag-Pol polyprotein [588-1027,P823L]/[588-1147,P823L] (Human immunodeficiency virus 1, UniProt P04585, P823L); assay: HIV-1 RT Assay; details: pH 8.3; 28 °C
# T2 construct: 588-1027; 588-1147
# Excerpt: as §1
SMILES,IC50 [1],IC50 [2]
"CCc1c(CCO)nn(-c2ccccc2)c1-c1ccccc1 [1,5-Diphenyl-3-(2-hydroxyethyl)-4-ethylpyrazole]",> 50 µM,
"C#CCc1c(C)nn(-c2ccccc2)c1-c1ccccc1 [3-methyl-1,5-diphenyl-4-(prop-2-yn-1-yl)-1H-pyrazole]",13.4 µM,1.54 µM
